The values below come from US12042530B2, “Target peptides for immunotherapy and diagnostics” (University of Virginia Patent Foundation, priority 2012, dated 2024).

Where two headings read alike, the source gives them in different places. Non-standard residues stand in square brackets, D forms with d. No end group written: not given here. pS = N[C@@H](COP(=O)(O)O)C(=O)O

In test [1] the test system is cancer cell lines. Kind of test: Recognition of naturally processed phosphopeptides on cancer cell lines by phosphopeptide-specific CTL (murine IFNγ). The class given is cell-based, human. Particulars: ovarian, melanoma and breast cancer lines versus JY EBV-BLCL control. How it is done:
FIGS. 9A and 9B are bar graphs of the recognition of naturally processed and presented phosphorylated peptides on cancer cells by the phosphopeptide-specific CTL. Phosphopeptide-specific CTL were incubated with the following cancer cell lines or EBV-transformed B lymphoblastoid cell lines (BLCL): COV413.AAD.A4 ovarian carcinoma, DM331.AAD.A4 and SLM2.AAD.A1 melanomas, MCF7.AAD.A2 and MDAMB231.AAD breast carcinomas, and JY EBV-BLCL. Supernatants were harvested and evaluated for the presence of murine IFNγ (produced by murine CTL lines). […] The designation “pS” denotes a phosphoserine residue. The ordinate indicates murine IFNγ in pg/ml. The abscissa indicates each cell line.

The subject of test [2] is PBMCs. Nature of the test: Memory T cell response, IFNγ ELISpot, healthy A2 positive donors. The class given is cell-based, human. The note with it: for Day 7 ELISpot, donor alpha: healthy A2 positive donor alpha; for Day 7 ELISpot, donor one: healthy A2 positive donor one.
The target in test [3] is HLA A*0301 (Homo sapiens, UniProt P04439). Kind of test: Binding to HLA A*0301 (statement).
Test [4] concerns the target HLA A*0201 (Homo sapiens, UniProt P04439, D140Y/D185E/D98H/E176V/E277Q/G131W/G231S/I119V/I121R/I166T/I218V/L300P/L318F/N151K/N90K/P208A/P217A/Q86G/Q94H/R138H/R169H/T345S). Kind of test: Binding to HLA A*0201 (statement).

On to “GLLGpSPVRA (GLLG[pS]PVRA; listed as Homo sapiens) [SEQ ID NO: 396]”, for which the “Recognition of the endogenous phosphopeptide by specific CTL lines” value in test [1] is reported as “recognized the phosphopeptide on all the cancer cell lines but not the control cell line”. In test [2], the “Day 7 ELISpot, donor alpha” value was “+ (3-24 spots)” and the “Day 7 ELISpot, donor one” value is recorded as “+ (3-24 spots)”.

Take “RVApSPTSGV (RVA[pS]PTSGV; listed as Homo sapiens) [SEQ ID NO: 418]”: in test [1], the “Recognition of the endogenous phosphopeptide by specific CTL lines” value is listed as “recognized the phosphopeptide on all the cancer cell lines but not the control cell line”. Moreover, the “Day 7 ELISpot, donor alpha” value in test [2] is recorded as “++ (25-99 spots)”. Further, the “Day 7 ELISpot, donor one” value in test [2] was “++ (25-99 spots)”. Moreover, in test [2] (healthy donors / patient), the “Memory T cell response, in words” value is recorded as “None of the HD recognized or responded to it”. Besides, the “Binding to / presentation by HLA A*0301” value in test [3] is “cannot be presented by the A*0301 molecule”; in test [3] (listed as RVA), “binds to A*0301”. The “Binding to HLA A*0201” value in test [4] was “binds to HLA A*0201”; in test [4] (listed as RVA), “did not bind to A*0201”.
